Source: patent publication US10478425B2, “5-phenylazaindole derivative having AMPK-activating activity” (Shionogi & Co., Ltd., priority 2016, dated 2019)
Several values for one entry are separate records, joined by “and”; a condition that tells them apart may be missing. Identical values can stand only once. Like-named read-outs stand apart in the source and are kept apart here.

Molecular target: T1, Human AMPK α2β2γ1 (Homo sapiens, UniProt O43741+P54646)
T1 construct: The full length cDNAs of human AMPK β2 (NM_005399.3) and human AMPK α2 (NM_006252.3); The full length cDNAs of human AMPK β2 (NM_005399.3); the full length cDNA of human AMPK γ1 (NM_002733.3) had been inserted into pET28b(+); 6×His (N); made in house; host or cells: Escherichia coli BL21 CodonPlus (DE3)-RIL
Assay: Test Example 2: activation of phosphorylated human AMPK α2β2γ1 (mobility-shift kinase assay, FL-Peptide 7)
Type: biochemical
Details: for EC150: compound concentration showing 150% relative to the control (100%), human AMPK α2β2γ1 phosphorylated with CaMKK2; for Emax: maximum rate of increase in activity within the measurement range, control = 100%
Method: The full length cDNAs of human AMPK β2 (NM_005399.3) and human AMPK α2 (NM_006252.3) were inserted into the MCS1 and MCS2 of the pETDuet-1 vector to prepare a human AMPK β2 and human AMPK α2 (6×His tag at the 5′ terminus) expressing plasmid. The plasmid was cotransfected with an expression plasmid, in which the full length cDNA of human AMPK γ1 (NM_002733.3) had been inserted into pET28b(+), into BL21 CodonPlus (DE3)-RIL to obtain an expression strain. The expression strain was cultured in TB medium, followed by induction with 0.5 mM IPTG, and cultured at 25° C. for 3 hours and then harvested. After ultrasonication, supernatant was collected and applied to Histrap FF column (GE) and RESOUECE Q column (GE) to prepare 12.5 mg of purified sample containing three types of subunit from 1.8 L of broth.
An expression vector, in which the full length cDNA of human CAMKK β (NM_172226.1) had been inserted into pGEX-6P-3, was transfected into BL21 Star (DE3). The expression strain was cultured in TB medium, followed by induction with 0.5 mM IPTG, and cultured at 25° C. for 3 hours and then harvested. After ultrasonication, supernatant was collected and applied to GSTrap FF column (GE) to prepare 14 mg of GST-fused CAMKK β from 720 ml of broth.
Thus, phosphorylation treatment was carried out as pretreatment.
Human AMPK α2β2γ1 in an amount to give a conversion rate of approximately 10% by reaction for 2 hours, and CaMKK2 in an amount capable of sufficiently imparting activity to AMPK for one hour were mixed in a buffer solution consisting of a 50 mM HEPES-NaOH buffer solution (pH 7.0), 100 mM NaCl, 5 mM magnesium chloride, 0.1% bovine serum albumin, 0.2 mM sodium orthovanadate(V), 1 mM ethylene glycol-bis(2-aminoethyl ether)-N,N,N′,N′-tetraacetic acid (EGTA), 5 mM disodium β-glycerophosphate, 1 mM dithiothreitol and 0.2 mM ATP, and the resulting liquid was left to stand at 25° C. for 1 to 1.5 hours to sufficiently phosphorylate AMPK.
After that, to the enzyme liquid, which had been subjected to phosphorylation treatment, a compound dissolved in DMSO was added so as to have a 1% DMSO concentration. The resulting liquid was left to stand for 10 minutes.
To the liquid, a substrate solution consisting of a 50 mM HEPES-NaOH buffer solution (pH 7.0), 100 mM NaCl, 10 mM magnesium chloride, 0.1% bovine serum albumin, 0.2 mM sodium orthovanadate(V), 1 mM ethylene glycol-bis(2-aminoethyl ether)-N,N,N′,N′-tetraacetic acid (EGTA), 5 mM disodium β-glycerophosphate, 2 mM dithiothreitol, 0.4 mM ATP and 3 μM FL-Peptide 7 (manufactured by Caliper Life Sciences, Inc.) was added in equal amount (10 μl in total). The resulting liquid was allowed to react at 25° C. for 2 hours, then 10 μl of 20 mM EDTA was added thereto to stop the reaction.
To detect phosphorylated fluorescent substrates, the reaction mixture was applied to a measuring device, LabChip EZ Reader II manufactured by Caliper Life Science, Inc., for detecting fluorescence by using differences in mobility due to differences in charge. The setting conditions for the device were pressure, −1.5 PSI; upstream voltage, −2250 V; downstream voltage, −400 V; post sample buffer sip time, 40 seconds; final delay, 120 seconds; and peak order, Product First.
A conversion rate was calculated from the peak heights of the obtained substrate and product. The conversion rate when not containing a compound was used as a control, and a concentration dependent curve was made by plotting the rate of increase in activity to the control at each concentration of a compound.

T1 sequence (P54646 whole entry): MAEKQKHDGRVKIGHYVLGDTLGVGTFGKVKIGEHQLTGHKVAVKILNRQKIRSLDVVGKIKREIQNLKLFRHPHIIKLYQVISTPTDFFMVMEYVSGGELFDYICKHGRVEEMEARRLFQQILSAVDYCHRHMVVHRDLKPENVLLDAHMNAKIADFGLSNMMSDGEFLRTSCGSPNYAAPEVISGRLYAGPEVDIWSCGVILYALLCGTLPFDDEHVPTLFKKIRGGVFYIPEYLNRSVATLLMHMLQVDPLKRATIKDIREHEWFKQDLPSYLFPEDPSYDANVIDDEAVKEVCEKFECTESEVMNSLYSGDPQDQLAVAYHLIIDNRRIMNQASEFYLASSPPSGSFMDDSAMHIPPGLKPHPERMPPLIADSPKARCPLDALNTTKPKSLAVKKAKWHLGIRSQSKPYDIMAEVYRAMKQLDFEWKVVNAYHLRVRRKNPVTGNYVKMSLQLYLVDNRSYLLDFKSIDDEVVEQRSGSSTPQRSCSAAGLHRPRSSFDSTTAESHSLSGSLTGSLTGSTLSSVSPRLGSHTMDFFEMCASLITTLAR
T1 sequence (O43741 whole entry): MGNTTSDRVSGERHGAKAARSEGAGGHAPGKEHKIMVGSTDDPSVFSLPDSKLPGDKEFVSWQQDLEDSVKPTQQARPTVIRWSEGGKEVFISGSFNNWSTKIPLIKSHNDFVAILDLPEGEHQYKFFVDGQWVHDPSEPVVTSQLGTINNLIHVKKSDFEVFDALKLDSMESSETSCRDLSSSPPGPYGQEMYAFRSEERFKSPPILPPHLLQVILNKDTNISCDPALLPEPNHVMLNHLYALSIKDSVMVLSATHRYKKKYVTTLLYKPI
T1 sequence (P54619 whole entry partner): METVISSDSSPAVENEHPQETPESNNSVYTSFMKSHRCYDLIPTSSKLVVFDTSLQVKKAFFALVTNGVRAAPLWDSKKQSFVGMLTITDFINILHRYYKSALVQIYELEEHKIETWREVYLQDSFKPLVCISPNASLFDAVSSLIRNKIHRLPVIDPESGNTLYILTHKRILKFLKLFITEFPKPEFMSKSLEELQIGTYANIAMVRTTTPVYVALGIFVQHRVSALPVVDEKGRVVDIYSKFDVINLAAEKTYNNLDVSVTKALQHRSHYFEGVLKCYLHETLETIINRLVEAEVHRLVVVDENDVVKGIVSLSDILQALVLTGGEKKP

Q: What does the source list for `C[S+]([O-])c1ccc(-c2ccc(-c3nc4cc(O[C@@H]5CO[C@H](CO)C5)[nH]c4cc3F)cc2)cc1` (single isomer, unassigned) [Compound I-2-06]?
A: EC150: 0.46 nM; Emax (read-out: Emax): 621%

Q: `C[S+]([O-])c1ccc(-c2ccc(-c3nc4cc(O[C@@H]5CO[C@H](CO)C5)[nH]c4cc3F)cc2)cc1` (single isomer, unassigned) [Compound I-2-07] was tested. Which EC150 did it give?
A: 0.68 nM

Q: And the Emax?
A: 638%

Q: With `C[S+]([O-])c1ccc(-c2ccc(-c3nc4cc(O[C@@H]5CO[C@H]6[C@@H]5OC[C@H]6O)[nH]c4cc3F)cc2)cc1` (single isomer, unassigned) [Compound I-2-08] as the compound, how does the EC150 read?
A: 1.6 nM

Q: And the Emax (read-out: Emax)?
A: 598%

Q: With `C[S+]([O-])c1ccc(-c2ccc(-c3nc4cc(O[C@@H]5CO[C@H]6[C@@H]5OC[C@H]6O)[nH]c4cc3F)cc2)cc1` (single isomer, unassigned) [Compound I-2-09] as the compound, how does the EC150 read?
A: 1.9 nM

Q: And the Emax?
A: 598%

Q: `CS(C)(=O)=Nc1ccc(-c2ccc(-c3nc4cc(O[C@H]5CCOC5)[nH]c4cc3Cl)cc2)cc1` [Compound I-1-01] was tested. Which EC150 did it give?
A: 24 nM

Q: What about the Emax (read-out: Emax) of the same compound?
A: 282%

Q: With `COC(=O)NC1CCN(c2ccc(-c3nc4cc(O[C@@H]5CO[C@H](CO)C5)[nH]c4cc3F)cc2)CC1` [Compound I-1-03] as the compound, how does the EC150 read?
A: 9.8 nM

Q: And the Emax (read-out: Emax)?
A: 556%

Q: With `CS(C)(=O)=Nc1ccc(-c2ccc(-c3nc4cc(O[C@H]5CO[C@H](CO)[C@@H](O)C5)[nH]c4cc3F)cc2)cc1` [Compound I-1-04] as the compound, how does the EC150 read?
A: 6.2 nM

Q: What about the Emax (read-out: Emax) of the same compound?
A: 332%

Q: Which EC150 does the source give for `CS(C)(=O)=Nc1ccc(-c2ccc(-c3nc4cc(O[C@@H]5CC[C@@H](CO)OC5)[nH]c4cc3F)cc2)cc1` [Compound I-1-06] here?
A: 19 nM

Q: And the Emax (read-out: Emax)?
A: 263%

Q: With `CO[C@@H]1CO[C@H]2[C@@H]1OC[C@H]2Oc1cc2nc(-c3ccc(-c4ccc(N=S(C)(C)=O)cc4)cc3)c(F)cc2[nH]1` [Compound I-1-07] as the compound, how does the EC150 read?
A: 15 nM

Q: And the Emax (read-out: Emax)?
A: 189%

Q: What does the source list for `CNC(=O)Nc1ccc(-c2ccc(-c3nc4cc(O[C@@H]5CO[C@H]6[C@@H]5OC[C@H]6O)[nH]c4cc3F)cc2)cc1` [Compound I-1-08]?
A: EC150: 4.7 nM; Emax (read-out: Emax): 444%

Q: `O=C(c1ccc(-c2ccc(-c3nc4cc(O[C@@H]5CO[C@H]6[C@@H]5OC[C@H]6O)[nH]c4cc3F)cc2)cc1)N1CCCC1` [Compound I-1-09] was tested. Which EC150 did it give?
A: 4.8 nM

Q: And the Emax (read-out: Emax)?
A: 475%

Q: What does the source list for `CCOC(=O)NC1CCN(c2ccc(-c3nc4cc(O[C@@H]5CO[C@H]6[C@@H]5OC[C@H]6O)[nH]c4cc3F)cc2)CC1` [Compound I-1-10]?
A: EC150: 13 nM; Emax (read-out: Emax): 490%

Q: With `CCC(=O)NC1CCN(c2ccc(-c3nc4cc(O[C@@H]5CO[C@H]6[C@@H]5OC[C@H]6O)[nH]c4cc3F)cc2)CC1` [Compound I-1-12] as the compound, how does the Emax read?
A: 497% and 523%

Q: For `CCOC(=O)N[C@H]1CC[C@H](c2ccc(-c3nc4cc(O[C@@H]5CO[C@H]6[C@@H]5OC[C@H]6O)[nH]c4cc3F)cc2)CC1` [Compound I-1-14], which EC150 is on record?
A: 24 nM

Q: And the Emax (read-out: Emax)?
A: 513%

Q: `O[C@@H]1CO[C@H]2[C@@H]1OC[C@H]2Oc1cc2nc(-c3ccc(-c4ccc(C5=NCCO5)cc4)cc3)c(F)cc2[nH]1` [Compound I-1-15] was tested. Which EC150 did it give?
A: 0.58 nM

Q: And the Emax (read-out: Emax)?
A: 525%

Q: `CS(=O)(=O)NC1CC=C(c2ccc(-c3nc4cc(O[C@@H]5CO[C@H]6[C@@H]5OC[C@H]6O)[nH]c4cc3F)cc2)CC1` (stereo partly drawn) [Compound I-1-17] was tested. Which EC150 did it give?
A: 3.4 nM

Q: What about the Emax (read-out: Emax) of the same compound?
A: 483%

Q: How did the EC150 turn out when `C[S@](=O)(=Nc1ccc(-c2ccc(-c3nc4cc(O[C@@H]5CO[C@H]6[C@@H]5OC[C@H]6O)[nH]c4cc3F)cc2)cc1)c1ccccc1` [Compound I-1-18] was run?
A: 19 nM

Q: And the Emax (read-out: Emax)?
A: 415%

Q: What does the source list for `C[S@@](=O)(=Nc1ccc(-c2ccc(-c3nc4cc(O[C@@H]5CO[C@H]6[C@@H]5OC[C@H]6O)[nH]c4cc3F)cc2)cc1)c1ccccc1` [Compound I-1-19]?
A: EC150: 5.8 nM; Emax (read-out: Emax): 477%

Q: How did the EC150 turn out when `COc1cc(-c2ccc(N=S3(=O)CCCC3)cc2)ccc1-c1nc2cc(O[C@@H]3CO[C@H]4[C@@H]3OC[C@H]4O)[nH]c2cc1F` [Compound I-1-20] was run?
A: 8.3 nM

Q: And the Emax (read-out: Emax)?
A: 457%

Q: For `COC(=O)NC1CC=C(c2ccc(-c3nc4cc(O[C@@H]5CO[C@H]6[C@@H]5OC[C@H]6O)[nH]c4cc3F)cc2)CC1` (stereo partly drawn) [Compound I-1-22], which EC150 is on record?
A: 3.8 nM

Q: What about the Emax (read-out: Emax) of the same compound?
A: 422%

Q: Which EC150 does the source give for `COC(=O)NC1CC=C(c2ccc(-c3nc4cc(O[C@@H]5CO[C@H]6[C@@H]5OC[C@H]6O)[nH]c4cc3F)cc2)CC1` (stereo partly drawn) [Compound I-1-23] here?
A: 2.9 nM

Q: And the Emax?
A: 436%

Q: For `CN1CCC(Oc2ccc(-c3ccc(-c4nc5cc(O[C@@H]6CO[C@H]7[C@@H]6OC[C@H]7O)[nH]c5cc4F)cc3)cc2)C1` (stereo partly drawn) [Compound I-1-26], which EC150 is on record?
A: 1.5 nM

Q: What about the Emax (read-out: Emax) of the same compound?
A: 353%

Q: With `O[C@@H]1CO[C@H]2[C@@H]1OC[C@H]2Oc1cc2nc(-c3ccc(-c4ccc(OC5COC5)cc4)cc3)c(F)cc2[nH]1` [Compound I-1-28] as the compound, how does the EC150 read?
A: 15 nM

Q: What about the Emax (read-out: Emax) of the same compound?
A: 596%

Q: With `CS(C)(=O)=Nc1ccc(-c2ccc(-c3nc4cc(O[C@@H]5CO[C@H]6[C@@H]5OC[C@H]6O)[nH]c4cc3Cl)cc2)cc1` [Compound I-1-30] as the compound, how does the EC150 read?
A: 1.7 nM

Q: And the Emax (read-out: Emax)?
A: 500%

Q: How did the EC150 turn out when `CC(=O)NC1CCN(c2ccc(-c3nc4cc(O[C@@H]5CO[C@H]6[C@@H]5OC[C@H]6O)[nH]c4cc3F)cc2)CC1` [Compound I-1-31] was run?
A: 9.5 nM

Q: What about the Emax (read-out: Emax) of the same compound?
A: 539%

Q: For `CNS(=O)(=O)c1ccc(-c2ccc(-c3nc4cc(O[C@@H]5CO[C@H]6[C@@H]5OC[C@H]6O)[nH]c4cc3F)cc2)nc1` [Compound I-1-32], which EC150 is on record?
A: 8 nM

Q: And the Emax (read-out: Emax)?
A: 456%

Q: Which results are given for `CN(C)S(=O)(=O)c1ccc(-c2ccc(-c3nc4cc(O[C@@H]5CO[C@H]6[C@@H]5OC[C@H]6O)[nH]c4cc3F)cc2)nc1` [Compound I-1-33]?
A: EC150: 6.5 nM; Emax (read-out: Emax): 464%

Q: What does the source list for `CC(C)OC(=O)NC1CCN(c2ccc(-c3nc4cc(O[C@@H]5CO[C@H]6[C@@H]5OC[C@H]6O)[nH]c4cc3F)cc2)CC1` [Compound I-1-34]?
A: EC150: 8.6 nM; Emax (read-out: Emax): 518%

Q: Which results are given for `CC(=O)Nc1ccc(-c2ccc(-c3nc4cc(O[C@@H]5CO[C@H]6[C@@H]5OC[C@H]6O)[nH]c4cc3F)cc2)cc1` [Compound I-1-35]?
A: EC150: 5.9 nM; Emax (read-out: Emax): 432%

Q: Which results are given for `CC(=O)N(C)c1ccc(-c2ccc(-c3nc4cc(O[C@@H]5CO[C@H]6[C@@H]5OC[C@H]6O)[nH]c4cc3F)cc2)cc1` [Compound I-1-36]?
A: EC150: 1.7 nM; Emax (read-out: Emax): 437%

Q: How did the EC150 turn out when `O=C1CCCN1c1ccc(-c2ccc(-c3nc4cc(O[C@@H]5CO[C@H]6[C@@H]5OC[C@H]6O)[nH]c4cc3F)cc2)cc1` [Compound I-1-37] was run?
A: 6.5 nM

Q: What about the Emax (read-out: Emax) of the same compound?
A: 405%

Q: With `O[C@@H]1CO[C@H]2[C@@H]1OC[C@H]2Oc1cc2nc(-c3ccc(-c4ccc(C5=NCCN5)cc4)cc3)c(F)cc2[nH]1` [Compound I-1-38] as the compound, how does the EC150 read?
A: 0.99 nM

Q: And the Emax (read-out: Emax)?
A: 470%
